Earlier results on two compounds are cited in US20050096391A1 (priority 2003, published 2005).

For series [1] the following is noted: pH of 7.0.
For series [2] the following is noted: oral.
The subject of series [3] is low-density lipoprotein (LDL)-cholesterol. Conditions: compared with atorvastatin, simvastatin, pravastatin.

Regarding `CC(C)c1nc(N(C)S(C)(=O)=O)nc(-c2ccc(F)cc2)c1/C=C/[C@@H](O)C[C@@H](O)CC(=O)[O-].CC(C)c1nc(N(C)S(C)(=O)=O)nc(-c2ccc(F)cc2)c1/C=C/[C@@H](O)C[C@@H](O)CC(=O)[O-].[Ca+2]` [Rosuvastatin calcium], the solubility in ethanol entry (ethanol) is recorded as “slightly soluble”. Besides, the solubility in methanol entry (methanol) is listed as “sparingly soluble”. In addition, the solubility in water entry (water) is “sparingly soluble”.
For `CC(C)c1nc(N(C)S(C)(=O)=O)nc(-c2ccc(F)cc2)c1/C=C/[C@@H](O)C[C@@H](O)CC(=O)O` [Rosuvastatin, (E)-7-[4-(4-fluorophenyl)-6 isopropyl-2-[methyl (methyl-sulfonyl)amino]pyrimidin-5-yl](3R,5S)-3,5-dihydroxyhept-6-enoic acid], in series [1], the “partition coefficient (octanol/water)” value is reported as 0.13. For the same compound, the bioavailability entry in series [2] is “approximately 20%”. Moreover, in series [3], the “reductions in low-density lipoprotein (LDL)-cholesterol” value was “greater reductions in low-density lipoprotein (LDL)-cholesterol than atorvastatin, simvastatin, and pravastatin”.
